Assay results as given in patent US12227495B2, “Herbicidal compounds” (SYNGENTA CROP PROTECTION AG, priority 2018, dated 2025).

How the values were obtained:
Assay type in all cases: in vivo
[1] = system: Solanum nigrum (SOLNI); assay: Pre-emergence herbicide test, glasshouse, percentage damage; conditions: rate 1000 g/ha, evaluated after 13 days
In short: (§1)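 Seeds sown in pots; cultured 1 day (pre-emergence) or 8 days (post-emergence) in a controlled glasshouse; then sprayed with the active in acetone/water 50:50 plus 0.5% Tween 20 at 500 g/ha unless noted; grown on 13 days; damage assessed and banded into five classes.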

[2] = system: Setaria faberi (SETFA); assay: as above; conditions: rate 1000 g/ha, evaluated after 13 days
In short: as §1

[3] = system: Ipomoea hederacea (IPOHE); assay: as above; conditions: rate 1000 g/ha, evaluated after 13 days
In short: as §1

[4] = system: Amaranthus retoflexus (AMARE); assay: as above; conditions: rate 1000 g/ha, evaluated after 13 days
In short: as §1

[5] = system: Echinochloa crus-galli (ECHCG); assay: as above; conditions: rate 1000 g/ha, evaluated after 13 days
In short: as §1

[6] = system: Lolium perenne (LOLPE); assay: as above; conditions: rate 1000 g/ha, evaluated after 13 days
In short: as §1

[7] = system: Solanum nigrum (SOLNI); assay: Post-emergence herbicide test, glasshouse, percentage damage; conditions: 1000 g/ha, evaluated after 13 days
In short: as §1

[8] = system: Setaria faberi (SETFA); assay: as above; conditions: 1000 g/ha, evaluated after 13 days
In short: as §1

[9] = system: Ipomoea hederacea (IPOHE); assay: as above; conditions: 1000 g/ha, evaluated after 13 days
In short: as §1

[10] = system: Amaranthus retoflexus (AMARE); assay: as above; conditions: 1000 g/ha, evaluated after 13 days
In short: as §1

[11] = system: Echinochloa crus-galli (ECHCG); assay: as above; conditions: 1000 g/ha, evaluated after 13 days
In short: as §1

[12] = system: Lolium perenne (LOLPE); assay: as above; conditions: 1000 g/ha, evaluated after 13 days
In short: as §1

Row | SMILES | Pre-emergence Test SOLNI percentage damage (five point scale) [1] | Pre-emergence Test SETFA percentage damage (five point scale) [2] | Pre-emergence Test IPOHE percentage damage (five point scale) [3] | Pre-emergence Test AMARE percentage damage (five point scale) [4] | Pre-emergence Test ECHCG percentage damage (five point scale) [5] | Pre-emergence Test LOLPE percentage damage (five point scale) [6] | percentage damage caused to the plant, SOLNI [7] | percentage damage caused to the plant, SETFA [8] | percentage damage caused to the plant, IPOHE [9] | percentage damage caused to the plant, AMARE [10] | percentage damage caused to the plant, ECHCG [11] | percentage damage caused to the plant, LOLPE [12]
1 | Fc1cccc(Oc2cccc(C(F)F)n2)c1-c1cc(C(F)F)no1 [Compound A55] | 2 (2=21-40%) | 4 (4=61-80%) | 1 (1=0-20%) | 2 (2=21-40%) | 1 (1=0-20%) | 1 (1=0-20%) | 5 (5=81-100%) | 2 (2=21-40%) | 1 (1=0-20%) | 5 (5=81-100%) | 1 (1=0-20%) | 1 (1=0-20%)
2 | Fc1cc(Cl)cnc1Oc1cccc(F)c1-n1cc(C(F)(F)F)cn1 [Compound A58] | 5 (5=81-100%) | 5 (5=81-100%) | 5 (5=81-100%) | 5 (5=81-100%) | 5 (5=81-100%) | 5 (5=81-100%) | 5 (5=81-100%) | 5 (5=81-100%) | 5 (5=81-100%) | 5 (5=81-100%) | 4 (4=61-80%) | 5 (5=81-100%)
3 | Fc1cc(Cl)cnc1Oc1cccc(Br)c1-n1cc(C(F)(F)F)cn1 [Compound A59] | 5 (5=81-100%) | 5 (5=81-100%) | 2 (2=21-40%) | 5 (5=81-100%) | 2 (2=21-40%) | 4 (4=61-80%) | 5 (5=81-100%) | 5 (5=81-100%) | 5 (5=81-100%) | 5 (5=81-100%) | 3 (3=41-60%) | 4 (4=61-80%)
4 | Fc1cccc(Oc2cc(Cl)ccn2)c1-c1cc(C(F)F)no1 [Compound A60] | 1 (1=0-20%) | 1 (1=0-20%) | 1 (1=0-20%) | 5 (5=81-100%) | 2 (2=21-40%) | 1 (1=0-20%) | 4 (4=61-80%) | 2 (2=21-40%) | 2 (2=21-40%) | 4 (4=61-80%) | 1 (1=0-20%) | 1 (1=0-20%)
5 | Fc1cc(Cl)cnc1Oc1ccc(Br)c(Br)c1-n1cc(C(F)(F)F)cn1 [Compound A61] | 1 (1=0-20%) | 2 (2=21-40%) | 1 (1=0-20%) | 1 (1=0-20%) | 1 (1=0-20%) | 1 (1=0-20%) | 5 (5=81-100%) | 2 (2=21-40%) | 2 (2=21-40%) | 5 (5=81-100%) | 1 (1=0-20%) | 1 (1=0-20%)
6 | Fc1cccc(Oc2cc(OC(F)(F)F)ccn2)c1-c1cc(C(F)F)no1 [Compound A62] | 1 (1=0-20%) | 1 (1=0-20%) | 1 (1=0-20%) | 4 (4=61-80%) | 1 (1=0-20%) | 1 (1=0-20%) | 3 (3=41-60%) | 3 (3=41-60%) | 3 (3=41-60%) | 4 (4=61-80%) | 3 (3=41-60%) | 2 (2=21-40%)
